From patent US5455161A, “Method for the monitoring of multiple anticancer drug resistance” (priority 1992, dated 1995)
Numbered stars: 1 amine (or outer) side, 2 acyl side, 3 side chain; on linkers, the order of the positions; unused ones are H or OH. Bridge positions count the residues as written; N and C are the ends. Square brackets hold non-standard residues; d marks the D form. Peptide text beside a SMILES is read from it. I, II: the chains in the order shown. Actinocin(9to1) = Cc1c2oc3c(C)ccc(C(=O)[*:1])c3nc-2c(C(=O)[*:2])c(N)c1=O; NMeV = CN[C@H](C(=O)O)C(C)C; Sar = CNCC(=O)O

Experiments:
T19 cells [1] = assay: cells; format: cell-based, Chinese hamster
Method: (§1) Clonogenic cytotoxic assays were performed with AA8 and T19 cells exposed to various concentrations of colchinine for 6 hours, 18 hours, 48 hours or continuously, and each time the clonal surviving fractions were determined.

AA8 cells [2] = assay: cells; format: cell-based, Chinese hamster; conditions: for IC50: Cricetulus griseus, CHO-AA8, read-out: LD50 (clonogenic assay) AA8
Method: as §1

T19 cells [3] = assay: ODC (ornithine decarboxylase activity) assay of drug resistance, multidrug resistant T19 cells; format: cell-based, Chinese hamster; conditions: for IC50: Cricetulus griseus, read-out: IC50 (ODC assay) T19; for Resistance (-fold), ODC assay, T19 versus AA8: T19/AA8 ratio of IC50
Method: (§2) The protein determinations were carried out according to the method of Bradford (Anal.Biochem. 72, 248-54, 1976), using lysozyme, triple crystallization and dialysis, as a standard.
(§3) Monolayers of parental AA8 and multidrug resistant T19 cells grown for 4 days at 37° C., were exposed to various concentrations of the antimitotic agent colchinine, for 6 hours, 18 hours and 48 hours and then the activity of ornithine decarboxylase was determined.
(§4) In the same manner, this assay was tested with various anticancer drugs of various structure and distinct mechanisms of action. The following cytotoxic agents were tested: vinca alkaloids, anthracyclines, epipodophyllotoxins, actinomycin D and antifolates.

AA8 cells [4] = assay: ODC (ornithine decarboxylase activity) assay of cellular drug sensitivity, wild type AA8 cells; format: cell-based, Chinese hamster; conditions: for IC50: Cricetulus griseus, read-out: IC50 (ODC assay) AA8
Method: as §2, §3, §4

[5] = target: T1, ornithine decarboxylase from AA8 cells (Cricetulus griseus, UniProt P14019); assay: biochemical; conditions: IC50, concentration required to reduce the ornithine decarboxylase by 50%
T1 sequence (P14019 1-455): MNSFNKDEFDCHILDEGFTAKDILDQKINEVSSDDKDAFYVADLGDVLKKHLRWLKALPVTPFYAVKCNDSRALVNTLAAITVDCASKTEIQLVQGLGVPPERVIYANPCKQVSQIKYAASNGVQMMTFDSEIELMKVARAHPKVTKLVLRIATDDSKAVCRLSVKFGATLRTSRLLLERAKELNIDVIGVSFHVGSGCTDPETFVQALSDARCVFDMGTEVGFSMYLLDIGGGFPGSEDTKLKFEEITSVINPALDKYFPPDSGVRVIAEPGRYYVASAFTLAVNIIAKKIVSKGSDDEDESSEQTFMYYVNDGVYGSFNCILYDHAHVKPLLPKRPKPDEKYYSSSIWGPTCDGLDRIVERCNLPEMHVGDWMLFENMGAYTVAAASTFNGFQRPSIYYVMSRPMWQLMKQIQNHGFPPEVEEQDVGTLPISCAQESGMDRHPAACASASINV
Method: Monolayer cells grown in the absence and presence of a known cytotoxic agent, were washed twice with 10 mls of phosphate-buffered saline and suspended in a petri dish (0.5 ml/10 cm) in an ice-cold ornithine decarboxylase buffer containinig 50 mM of Tris-Cl, pH=7.3, 0.1 mM ethylene diamine tetraacetic acid, 50 uM pyridoxal 5'-phosphate (Sigma) and 5 mM of dithiothreitol. The cells were lysed under three cycles of freezing in liquid nitrogen and thawing at 37° C. The cell lysates were then centrifuged at 15,000 g for 15 minutes at 4° C., the supernatant liquid was collected and used in the assay for the ornithine decarboxylase activity. The assay was based on the Djurhuss method that utilizes a strong cation-exchange paper (Anal. Biochem. 113:352-5, 1981). […] After incubation for 60 minutes at 37° C. under agitation, the reaction mixture was spotted onto a strip of P81 cellulose phosphate paper and dried. After washing in a solution of 0.1M ammonium hydroxide and drying,liquid scintillation counting was performed. In similar manner, blank values were determined by using 80 ul of ornithine decarboxylase buffer, instead of the cytosolic cell extract.

[6] = Cricetulus griseus, read-out: LD50 (clonogenic assay) T19
[7] = incubation time 18 hr, mean of two to four independent experiments
[8] = CHO-AA8, incubation time 18 hr, mean of two to four independent experiments
[9] = incubation time 48 hr, mean of two to four independent experiments
[10] = CHO-AA8, incubation time 48 hr, mean of two to four independent experiments

CC[C@]1(O)C[C@@H]2CN(CCc3c([nH]c4ccccc34)[C@@](C(=O)OC)(c3cc4c(cc3OC)N(C)[C@H]3[C@@](O)(C(=O)OC)[C@H](OC(C)=O)[C@]5(CC)C=CCN6CC[C@]43[C@@H]65)C2)C1 [Vinblastine]
IC50 (T19 cells [1]; [6]): 80 nM | Resistance (-fold), clonogenic assay, T19 versus AA8 (T19 cells [1]; hamster, t19 vs aa8 cells): 26.7 -fold | IC50 (AA8 cells [2]): 3 nM | IC50 (T19 cells [3]; [7]): 275 nM | Resistance (-fold), ODC assay, T19 versus AA8 (T19 cells [3]; incubation time 18 hr): 17.3 -fold | IC50 (AA8 cells [4]; [8]): 15.9 nM

COc1cccc2c1C(=O)c1c(O)c3c(c(O)c1C2=O)C[C@@](O)(C(=O)CO)C[C@@H]3O[C@H]1C[C@H](N)[C@H](O)[C@H](C)O1 [Doxorubicin]
IC50 (T19 cells [1]; [6]): 8450 nM | IC50 (AA8 cells [2]): 40 nM | IC50 (T19 cells [3]; [9]): 3580 nM | Resistance (-fold), ODC assay, T19 versus AA8 (T19 cells [3]; incubation time 48 hr): 65.0 -fold | IC50 (AA8 cells [4]; [10]): 55 nM

NCCCC(N)(C(=O)O)C(F)F (racemic) [DMFO, DL-o-difluoromethylornithine]
IC50 ([5]; extract of AA8-induced cells (received fresh serum-containing medium), 2x10^7 cells): 5000 nM | IC50 ([5]; extract of non-induced AA8 cells (no fresh medium), same number of cells): 1100 nM

CN(Cc1cnc2nc(N)nc(N)c2n1)c1ccc(C(=O)N[C@@H](CCC(=O)O)C(=O)O)cc1 [Methotrexate]
IC50 (T19 cells [1]; [6]): 30.6 nM | Resistance (-fold), clonogenic assay, T19 versus AA8 (T19 cells [1]; hamster, t19 vs aa8 cells): 1.2 -fold | IC50 (AA8 cells [2]): 25.1 nM | IC50 (T19 cells [3]; [9]): 63.8 nM | Resistance (-fold), ODC assay, T19 versus AA8 (T19 cells [3]; incubation time 48 hr): 1.1 -fold | IC50 (AA8 cells [4]; [10]): 56.5 nM

COc1cc(NCc2ccc3nc(N)nc(N)c3c2C)cc(OC)c1OC [Trimetrexate]
IC50 (T19 cells [1]; [6]): 68.6 nM | Resistance (-fold), clonogenic assay, T19 versus AA8 (T19 cells [1]; hamster, t19 vs aa8 cells): 28.6 -fold | IC50 (AA8 cells [2]): 2.4 nM | IC50 (T19 cells [3]; [9]): 72.4 nM | Resistance (-fold), ODC assay, T19 versus AA8 (T19 cells [3]; incubation time 48 hr): 25.0 -fold | IC50 (AA8 cells [4]; [10]): 2.9 nM

Cc1c2oc3c(C)ccc(C(=O)N[C@@H]4C(=O)N[C@H](C(C)C)C(=O)N5CCC[C@H]5C(=O)N(C)CC(=O)N(C)[C@@H](C(C)C)C(=O)O[C@@H]4C)c3nc-2c(C(=O)N[C@@H]2C(=O)N[C@H](C(C)C)C(=O)N3CCC[C@H]3C(=O)N(C)CC(=O)N(C)[C@@H](C(C)C)C(=O)O[C@@H]2C)c(N)c1=O [Actinomycin D] (I: T[dV]P[Sar][NMeV] / II: T[dV]P[Sar][NMeV]; ester I:1-I:C, II:1-II:C; linker I:N-II:N via Actinocin(9to1))
IC50 (T19 cells [1]; [6]): 49.7 nM | Resistance (-fold), clonogenic assay, T19 versus AA8 (T19 cells [1]; ratio of LD50 T19/AA8): 22.6 -fold | IC50 (AA8 cells [2]): 2.2 nM | IC50 (T19 cells [3]; 18 h): 42 nM | Resistance (-fold), ODC assay, T19 versus AA8 (T19 cells [3]; incubation time 18 hr): 11.3 -fold | IC50 (AA8 cells [4]; CHO-AA8, 18 h): 3.7 nM

COc1ccc(OC)c(Cc2cnc3nc(N)nc(N)c3c2C)c1 [Piritrexim]
IC50 (T19 cells [1]; [6]): 113 nM | Resistance (-fold), clonogenic assay, T19 versus AA8 (T19 cells [1]; ratio of LD50 T19/AA8): 24.5 -fold | IC50 (AA8 cells [2]): 4.6 nM | IC50 (T19 cells [3]; [9]): 127 nM | Resistance (-fold), ODC assay, T19 versus AA8 (T19 cells [3]; incubation time 48 hr): 22.0 -fold | IC50 (AA8 cells [4]; [10]): 5.8 nM

COc1cc2c(c(OC)c1OC)-c1ccc(OC)c(=O)cc1[C@@H](NC(C)=O)CC2 [Colchicine]
IC50 (T19 cells [1]; read-out: LD50 (50% lethal dose), clonal survival, t19 cells): 6700 nM | LD50 (clonogenic assay) AA8 (AA8 cells [2]): 100 nM | ornithine decarboxylase activity with increased drug concentrations (AA8 cells [4]; exposure 6, 18 and 48 hours): dose-dependent decrease

Cc1nc(N)nc(N)c1-c1ccc(Cl)c(Cl)c1 [Metoprine]
IC50 (T19 cells [1]; [6]): 33.7 nM | Resistance (-fold), clonogenic assay, T19 versus AA8 (T19 cells [1]; hamster, t19 vs aa8 cells): 2.7 -fold | IC50 (AA8 cells [2]): 12.6 nM | IC50 (T19 cells [3]; [9]): 53.2 nM | Resistance (-fold), ODC assay, T19 versus AA8 (T19 cells [3]; incubation time 48 hr): 3.9 -fold | IC50 (AA8 cells [4]; [10]): 13.8 nM

COc1cc([C@@H]2c3cc4c(cc3[C@@H](O[C@@H]3O[C@@H]5CO[C@@H](C)O[C@H]5[C@H](O)[C@H]3O)[C@H]3COC(=O)[C@H]23)OCO4)cc(OC)c1O [Etoposide]
IC50 (T19 cells [1]; [6]): 4200 nM | Resistance (-fold), clonogenic assay, T19 versus AA8 (T19 cells [1]; ratio of LD50 T19/AA8): 15.9 -fold | IC50 (AA8 cells [2]): 265 nM | IC50 (T19 cells [3]; 48 h): 4180 nM | Resistance (-fold), ODC assay, T19 versus AA8 (T19 cells [3]; incubation time 48 hr): 11.4 -fold | IC50 (AA8 cells [4]; CHO-AA8, 48 h): 366 nM

COc1cccc2c1C(=O)c1c(O)c3c(c(O)c1C2=O)C[C@@](O)(C(C)=O)C[C@@H]3O[C@H]1C[C@H](N)[C@H](O)[C@H](C)O1 [Daunorubicin]
IC50 (T19 cells [1]; [6]): 726 nM | Resistance (-fold), clonogenic assay, T19 versus AA8 (T19 cells [1]; hamster, t19 vs aa8 cells): 84.1 -fold | IC50 (AA8 cells [2]): 8.6 nM | IC50 (T19 cells [3]; [9]): 1860 nM | Resistance (-fold), ODC assay, T19 versus AA8 (T19 cells [3]; incubation time 48 hr): 63.0 -fold | IC50 (AA8 cells [4]; [10]): 29.6 nM

CC[C@]1(O)C[C@H]2CN(CCc3c([nH]c4ccccc34)[C@@](C(=O)OC)(c3cc4c(cc3OC)N(C=O)[C@H]3[C@@](O)(C(=O)OC)[C@H](OC(C)=O)[C@]5(CC)C=CCN6CC[C@]43[C@@H]65)C2)C1 [Vincristine]
IC50 (T19 cells [1]; [6]): 229 nM | Resistance (-fold), clonogenic assay, T19 versus AA8 (T19 cells [1]; hamster, t19 vs aa8 cells): 28.1 -fold | IC50 (AA8 cells [2]): 8.2 nM | IC50 (T19 cells [3]; [7]): 1530 nM | Resistance (-fold), ODC assay, T19 versus AA8 (T19 cells [3]; incubation time 18 hr): 19.2 -fold | IC50 (AA8 cells [4]; [8]): 79.6 nM

COc1ccc(C[C@H](N)C(=O)N[C@H]2[C@@H](O)[C@H](n3cnc4c(N(C)C)ncnc43)O[C@@H]2CO)cc1 [Puromycin]
IC50 (T19 cells [1]; [6]): 116 nM | Resistance (-fold), clonogenic assay, T19 versus AA8 (T19 cells [1]; hamster, t19 vs aa8 cells): 25.8 -fold | IC50 (AA8 cells [2]): 4.5 nM | IC50 (T19 cells [3]; [9]): 315 nM | Resistance (-fold), ODC assay, T19 versus AA8 (T19 cells [3]; incubation time 48 hr): 30.0 -fold | IC50 (AA8 cells [4]; [10]): 10.5 nM
